From paper PMC11274883, “Anticancer Effect of Pt^[sequence], Pt^II5MESS, Pt^II56MESS and Their Platinum(IV)-Dihydroxy Derivatives against Triple-Negative Breast Cancer and Cisplatin-Resistant Colorectal Cancer” (Cancers, 2024)

Legend:
Type in all cases: cell-based
HT29 cells [1] = test: Cellular uptake of Pt by ICP-MS; settings: for Intracellular Concentration: HT29, 3 µM; for Intracellular/extracellular ratio: HT29, extracellular 3 µM
Description: A final concentration of 10^6 cells/well of MDA−MB−231 and HT29 cells were seeded in 6-well plates and incubated overnight to adhere. The cells were then treated with a final concentration of 3 µM of either Pt^II or Pt^IV complexes. After 0, 0.5, 1, 3, 6, 12, 24 or 30 h, the medium was removed, and the cells were washed three times with cold PBS and allowed to dry. Then, 400 µL of 69% HNO3 (Baseline grade nitric acid with PPB level reported impurities, Seastar Chemicals, Sidney, BC, Canada) was added to each well for 90 min to ensure complete digestion. […] Iridium 193 (^193Ir) was mixed online and introduced into the ICP-MS to check uptake efficiency and matrix interference. All ICP-MS parameters are described in Table S2 and elaborated in Method S3. The results represent an average of three different experiments run in triplicate (±SEM) and expressed as nmol/10^6 cells or µM/cell. Quantification of the cellular uptake of Pt was based on external standards (Certified Standard from Sigma-Aldrich, VIC, Australia) containing Internal standard Ir.
Method S3. Cellular Uptake of Platinum(II) and (IV) complexes
A final concentration of 10^6 cells/well of MDA−MB−231 and HT29 cells were seeded in 6-well plates and incubated overnight to adhere. The cells were then treated with a final concentration of 3 µM of either PtII or PtIV complexes. After 0, 0.5, 1, 3, 6, 12, 24 or 30 h, the medium was removed, and the cells were washed three times with cold PBS and allowed to dry. Then, 400 µL of 69% HNO3 (Baseline grade nitric acid with Instrument Quality Grade Nitric acid with ppb level reported impurities, Seastar Chemicals, Sidney, Canada) was added to each well for 90 mins to ensure complete digestion. The digests were then moved to trace -metal free 15 mL centrifuge tubes […]
concentration of 3.5-4%. Iridium 193 (193Ir), selected as internal standard, has similar first ionisation potential and mass to Platinum 195 (195Pt). A concentration of 50 ppb 193Ir in 2% HNO3 solution was chosen for the Perkin Elmer NexION® Inductively Coupled Plasma Mass Spectrometer (ICP-MS) as it produced a steady state signal intensity of 600-800K counts per second. Mixing and injection of sample and internal standard solution was carried out using an ESI 7 port Valve system (Elemental Scientific, USA). A high-quality Solvent Flex 2 stop pump with 0.38 mm ID tubing was used in conjunction with the ICP-MS’s Peristaltic pump set at 20 […]
standard both, at 0.25 mL/min) being 0.5 mL/min. The ICP-MS was tuned to high sensitivity settings to facilitate detection of low Pt concentrations in samples. This was done by adjusting the nebuliser gas flow between […] to achieve maximum Indium 115 intensity whilst maintaining an acceptable average oxide and doubly charged ratio of 1.64-2.24% and 1.17-1.69% respectively. The analysis method was set to peak hopping mode with a dwell time of […] and 45 sweeps through the mass spectrum per sample read. […]
peak integration time of 4500 milliseconds and enabled the collection of numerous data points for peak integration thereby increasing accuracy. The ICP-MS was tuned daily, and its performance optimised to a set of suppliers recommended settings. Analysis was only carried out when optimal oxide and doubly charged ratios with high ionic sensitivity was achieved. All ICP-MS parameters are described in Table S2. The results represent an average of three different experiments run in triplicates (± SEM) and expressed as nmol/106 cells or µM/cell. Quantification of the cellular uptake of Pt was based on external standards (Certified Standard from Sigma-Aldrich NSW, Australia) containing Internal standard Ir. […]

MDA−MB−231 3D networks = test: 3D bioprinted culture cytotoxicity (WST-1); settings: 72 h, mean ± SEM
Description: To evaluate the cytotoxic effect of platinum(II) and (IV) complexes in 3D cell culture, MDA−MB−231 or HT29 cells were used to bioprint networks or spheroids with the non-contact drop-on-demand 3D RASTRUM bioprinter (Inventia Life Science, Alexandria, NSW, Australia). The 3D cultures use two constituents: bioink and activator. Cell pellets (2 × 10^6 cells) were resuspended in an activator reagent which forms an instant gel after its addition to the bioink by the bioprinter. The 3D large plug cell model with polyethylene glycol bioinks formulated to mimic the properties of in vivo tissue were chosen as follows. Matrix Px02.31 (activator F177 and bioink F242 with RGD: Fibronectin) was used for MDA−MB−231 3D embedded networks, Px02.00 (activator F177 and bioink F119 without RGD additives, Table S1) was used for MDA−MB−231 spheroids and matrix #Px02.09 (activator F177 and bioink F236 with adhesion peptides including, RGD: Fibronectin, and GFOGER: collagen type I to recapitulate rich in vivo tissue extracellular environments) was used for HT29 spheroids (Inventia Life Science) (Table S1). Each cell line was printed at 10,000 cells/well and loaded with the bioink fluids into the selected printer cartridge. After the automated priming of all fluids into the printer nozzles, each cell line was individually printed on tissue culture plates (Nunc^TM MicroWell^TM 96-Well, Nunclon Delta-Treated, Flat-Bottom Microplate, ThermoFisher #167008), with RASTRUM creating the 3D Large Plug across the 96-well plate. Following completion of the print run, 200 μL DMEM culture medium was added to each well using multichannel pipettes. The plate was then incubated for 7 days (humidified incubator with 5% CO2 at 37 °C) for compact and homogenous spheroid formation before the cytotoxicity assay. When the spheroids developed, post-7-day incubation, media was removed and replaced with 100 µL DMEM. […] Cytotoxicity was then assessed using the WST-1 assay as previously described in Section 2.3.

HT29 cells [2] = test: TMRE mitochondrial membrane potential assay; settings: complexes at IC50, FCCP 20 µM
Summary of the method: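 Cells treated with each complex at its IC50 concentration for 24, 48 or 72 h, then stained with 1 µM TMRE for 30 min and washed before fluorescence scanning. Three independent experiments in triplicate.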

Row | Structure (SMILES) | Intracellular Concentration (HT29 cells [1]; 0 h) [nmol/10^6 cells] | Intracellular Concentration (HT29 cells [1]; 0.5 h) [nmol/10^6 cells] | Intracellular Concentration (HT29 cells [1]; 1 h) [nmol/10^6 cells] | Intracellular Concentration (HT29 cells [1]; 3 h) [nmol/10^6 cells] | Intracellular Concentration (HT29 cells [1]; 6 h) [nmol/10^6 cells] | Intracellular Concentration (HT29 cells [1]; 12 h) [nmol/10^6 cells] | Intracellular Concentration (HT29 cells [1]; 24 h) [nmol/10^6 cells] | Intracellular Concentration (HT29 cells [1]; 30 h) [nmol/10^6 cells] | Intracellular/extracellular ratio (HT29 cells [1]; 0 h) | Intracellular/extracellular ratio (HT29 cells [1]; 0.5 h) | Intracellular/extracellular ratio (HT29 cells [1]; 1 h) | Intracellular/extracellular ratio (HT29 cells [1]; 3 h) | Intracellular/extracellular ratio (HT29 cells [1]; 6 h) | Intracellular/extracellular ratio (HT29 cells [1]; 12 h) | Intracellular/extracellular ratio (HT29 cells [1]; 24 h) | Intracellular/extracellular ratio (HT29 cells [1]; 30 h) | IC50 (MDA−MB−231 3D networks) [µM] | MtMp (mitochondrial membrane potential) (HT29 cells [2]; HT29, 24 h) [RFU] | MtMp (mitochondrial membrane potential) (HT29 cells [2]; HT29, 48 h) [RFU] | MtMp (mitochondrial membrane potential) (HT29 cells [2]; HT29, 72 h) [RFU]
1 | Cc1c(C)c2cccnc2c2ncccc12.N[C@H]1CCCC[C@@H]1N.O=[N+]([O-])[O-].O=[N+]([O-])[O-].[OH][Pt+2][OH] [Pt^IV56MESS(OH)2, [Pt(5,6-dimethyl-1,10-phenanthroline)(1S,2S-diaminocyclohexane)(dihydroxy)](NO3)2] | 0.14 | 0.18 | 0.28 | 0.42 | 1.74 | 5.43 | 9.14 | 9.98 | 21.81 | 28.52 | 43.51 | 66.77 | 273.54 | 854.01 | 1435.74 | 1568.28 | 1.4 ± 1.34 | 258.69 | 172.39 | 124.84
2 | N[C@H]1CCCC[C@@H]1N.O=[N+]([O-])[O-].O=[N+]([O-])[O-].[OH-].[OH-].[Pt+4].c1cnc2c(c1)ccc1cccnc12 [[Pt(1,10-phenanthroline)(1S,2S-diaminocyclohexane)(dihydroxy)](NO3)2] | 0.10 | 0.10 | 0.18 | 0.33 | 0.77 | 3.64 | 5.18 | 5.79 | 16.45 | 15.93 | 28.08 | 51.34 | 121.19 | 571.26 | 813.09 | 909.81 | 6.18 ± 1.62 | 312.19 | 261.95 | 215.58
3 | N[C@H]1CCCC[C@@H]1N.O=[N+]([O-])[O-].O=[N+]([O-])[O-].[Pt+2].c1cnc2c(c1)ccc1cccnc12 [[Pt(1,10-phenanthroline)(1S,2S-diaminocyclohexane)](NO3)2] | 0.61 | 0.85 | 0.72 | 2.77 | 5.95 | 12.59 | 15.26 | 16.99 | 95.39 | 133.55 | 112.44 | 435.59 | 935.29 | 1979.17 | 2397.59 | – | 2.84 ± 1.56 | 321.85 | 256.63 | 236.73
